A short description of experiment [1]: BHK-21 cell cytotoxicity, cytotoxicity control for flavivirus guanylyltransferase probe project, secondary screen (AID 624078). Format: functional.
A short description of experiment [2]: inhibitors of PGC1a acetylation in cells, dose response, cell-based, cherry-picked samples (AID 720514).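 Also: potency may reflect raised or lowered acetylation signal.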 The class given is functional.
A short description of experiment [3]: cytotoxicity in HepG2 cells, dose response, cytotoxicity control, cell-based, CellTiter-Glo luminescence, cherry-pick, set 4 (AID 743480). The class given is functional.
Experiment [4] in a line: HEK293T cell cytotoxicity, dose response, cytotoxicity control, CellTiter-Glo luminescence, cherry-picked samples, set 4 (AID 743441). The class given is functional, cell-based. The note with it: HEK293. A general note: Cellular ATP, detected with luciferase, serves as a proxy for viable cell number.
Experiment [5] concerns the target T1, Fibrinogen beta chain (Homo sapiens, UniProt P02675). Briefly: Fluorescence polarization-based biochemical high throughput dose response assay to identify inhibitors that disrupt the binding of a cyclic peptide (Tn6) to the fibrin proteolytic product D-Dimer and fragment E complex [DD(E )].
Experiment [6] deals with T2, Neuropeptide Y receptor type 1 (Homo sapiens, UniProt P25929).
T2 sequence (P25929 whole entry): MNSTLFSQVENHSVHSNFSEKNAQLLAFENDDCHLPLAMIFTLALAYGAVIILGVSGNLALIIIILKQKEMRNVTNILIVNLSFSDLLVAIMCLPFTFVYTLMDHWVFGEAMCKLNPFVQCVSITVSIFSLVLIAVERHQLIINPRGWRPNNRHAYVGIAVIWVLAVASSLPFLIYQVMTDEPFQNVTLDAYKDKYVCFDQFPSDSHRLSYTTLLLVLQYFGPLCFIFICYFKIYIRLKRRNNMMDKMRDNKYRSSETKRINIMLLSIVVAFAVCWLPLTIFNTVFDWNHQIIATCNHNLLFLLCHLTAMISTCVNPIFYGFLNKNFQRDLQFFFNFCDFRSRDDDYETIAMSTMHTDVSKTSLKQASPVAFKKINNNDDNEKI
Format: functional.

Experiment [7] has as its target T3, Fatty acid synthase (Homo sapiens, UniProt P49327). Briefly: FAS thioesterase domain inhibitors, dose response, biochemical, kinetic fluorescence intensity (AID 624326).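 Also: rate of fluorescence rise from hydrolysis of a fluorogenic O-methyl fluorescein ester substrate.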 Format: functional.
The target in experiment [8] is T1, Fibrinogen beta chain. Briefly: Fluorescence polarization-based biochemical high throughput dose response assay to identify inhibitors that disrupt the binding of a cyclic peptide (Tn7) to the fibrin proteolytic product D-Dimer and fragment E complex [DD(E )].
For experiment [9], the target named is T4, Neuropeptide Y receptor type 2 (Homo sapiens, UniProt P49146).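 Also: HEK293 cells expressing the receptor and a CNG channel; stimulus was NPY near EC95 followed by isoproterenol to raise cAMP; antagonist potency measured as restoring cAMP signal that NPY suppresses.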
T4 sequence (P49146 whole entry): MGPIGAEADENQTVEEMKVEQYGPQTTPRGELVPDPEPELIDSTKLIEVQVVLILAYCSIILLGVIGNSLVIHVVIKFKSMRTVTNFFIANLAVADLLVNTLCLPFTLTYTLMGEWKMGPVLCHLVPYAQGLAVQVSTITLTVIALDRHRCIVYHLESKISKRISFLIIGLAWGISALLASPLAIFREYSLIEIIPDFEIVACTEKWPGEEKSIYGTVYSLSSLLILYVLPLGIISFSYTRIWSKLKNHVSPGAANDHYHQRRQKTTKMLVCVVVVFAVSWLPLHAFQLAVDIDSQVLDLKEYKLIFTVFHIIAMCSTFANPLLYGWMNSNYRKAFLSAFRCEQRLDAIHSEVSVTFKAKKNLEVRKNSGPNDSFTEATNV
The class given is functional, cell-based.

For experiment [10], the target named is T3, Fatty acid synthase. Briefly: FAS thioesterase domain inhibitors, dose response, biochemical, endpoint fluorescence intensity, uHTS hits (AID 624327).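 Also: fluorescence from hydrolysis of an O-methyl fluorescein acyl ester substrate by the enzyme.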 Format: functional.
For experiment [11], the target named is RNA-editing ligase 1, mitochondrial (Trypanosoma brucei brucei, UniProt P86926). Briefly: TbREL1 ligase inhibitors, dose response, biochemical, fluorescence, Trypanosoma brucei (AID 1117295). The class given is functional.
A short description of experiment [12]: Late stage assay provider results from the probe development effort to identify inhibitors of the Plasmodium falciparum M18 Aspartyl Aminopeptidase (M18AAP): radiolabel-based cell-based dose response assay to identify compounds that inhibit P. falciparum growth in RBCs, Set 2.. The class given is functional.
Experiment [13] is described as follows: HEK293 Cytotoxicity Assay Measured in Cell-Based System Using Plate Reader - 7071-01_Inhibitor_Dose_CherryPick_Activity_Set2. The class given is functional.
Experiment [14] in a line: HepG2 cell cytotoxicity, dose response, cytotoxicity control, cherry-picked samples (AID 1159577). The class given is functional, cell-based.
In another experiment the test system is HEK293. Briefly: HEK293T cell cytotoxicity, dose response, cytotoxicity control, ATP luminescence, cherry-pick samples (AID 687005).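 Also: cells exposed to compound for 48 hours.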 The class given is functional, cell-based. To be noted: Homo sapiens.
Experiment [15] is described as follows: P. falciparum Dd2 growth inhibitors, dose response, SYBR Green, cherry-picked samples (AID 1159567). The class given is functional, cell-based.

Molecules are shown by their SMILES. Active and inactive are the calls of the source.

T1 sequence (P02675 whole entry, the tested form may be a part): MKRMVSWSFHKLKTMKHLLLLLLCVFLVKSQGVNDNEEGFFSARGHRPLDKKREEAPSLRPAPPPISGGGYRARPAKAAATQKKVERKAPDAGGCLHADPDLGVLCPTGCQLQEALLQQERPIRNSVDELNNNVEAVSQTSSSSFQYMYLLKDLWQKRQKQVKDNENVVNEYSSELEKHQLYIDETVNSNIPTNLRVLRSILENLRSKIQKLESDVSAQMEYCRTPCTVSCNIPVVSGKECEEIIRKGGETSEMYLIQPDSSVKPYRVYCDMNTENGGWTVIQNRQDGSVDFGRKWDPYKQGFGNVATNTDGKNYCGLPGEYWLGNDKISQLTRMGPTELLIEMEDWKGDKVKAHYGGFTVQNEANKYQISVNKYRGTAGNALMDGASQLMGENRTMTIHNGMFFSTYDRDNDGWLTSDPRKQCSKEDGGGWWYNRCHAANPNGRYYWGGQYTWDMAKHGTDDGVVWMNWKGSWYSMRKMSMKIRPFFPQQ
T3 sequence (P49327 whole entry, the tested form may be a part): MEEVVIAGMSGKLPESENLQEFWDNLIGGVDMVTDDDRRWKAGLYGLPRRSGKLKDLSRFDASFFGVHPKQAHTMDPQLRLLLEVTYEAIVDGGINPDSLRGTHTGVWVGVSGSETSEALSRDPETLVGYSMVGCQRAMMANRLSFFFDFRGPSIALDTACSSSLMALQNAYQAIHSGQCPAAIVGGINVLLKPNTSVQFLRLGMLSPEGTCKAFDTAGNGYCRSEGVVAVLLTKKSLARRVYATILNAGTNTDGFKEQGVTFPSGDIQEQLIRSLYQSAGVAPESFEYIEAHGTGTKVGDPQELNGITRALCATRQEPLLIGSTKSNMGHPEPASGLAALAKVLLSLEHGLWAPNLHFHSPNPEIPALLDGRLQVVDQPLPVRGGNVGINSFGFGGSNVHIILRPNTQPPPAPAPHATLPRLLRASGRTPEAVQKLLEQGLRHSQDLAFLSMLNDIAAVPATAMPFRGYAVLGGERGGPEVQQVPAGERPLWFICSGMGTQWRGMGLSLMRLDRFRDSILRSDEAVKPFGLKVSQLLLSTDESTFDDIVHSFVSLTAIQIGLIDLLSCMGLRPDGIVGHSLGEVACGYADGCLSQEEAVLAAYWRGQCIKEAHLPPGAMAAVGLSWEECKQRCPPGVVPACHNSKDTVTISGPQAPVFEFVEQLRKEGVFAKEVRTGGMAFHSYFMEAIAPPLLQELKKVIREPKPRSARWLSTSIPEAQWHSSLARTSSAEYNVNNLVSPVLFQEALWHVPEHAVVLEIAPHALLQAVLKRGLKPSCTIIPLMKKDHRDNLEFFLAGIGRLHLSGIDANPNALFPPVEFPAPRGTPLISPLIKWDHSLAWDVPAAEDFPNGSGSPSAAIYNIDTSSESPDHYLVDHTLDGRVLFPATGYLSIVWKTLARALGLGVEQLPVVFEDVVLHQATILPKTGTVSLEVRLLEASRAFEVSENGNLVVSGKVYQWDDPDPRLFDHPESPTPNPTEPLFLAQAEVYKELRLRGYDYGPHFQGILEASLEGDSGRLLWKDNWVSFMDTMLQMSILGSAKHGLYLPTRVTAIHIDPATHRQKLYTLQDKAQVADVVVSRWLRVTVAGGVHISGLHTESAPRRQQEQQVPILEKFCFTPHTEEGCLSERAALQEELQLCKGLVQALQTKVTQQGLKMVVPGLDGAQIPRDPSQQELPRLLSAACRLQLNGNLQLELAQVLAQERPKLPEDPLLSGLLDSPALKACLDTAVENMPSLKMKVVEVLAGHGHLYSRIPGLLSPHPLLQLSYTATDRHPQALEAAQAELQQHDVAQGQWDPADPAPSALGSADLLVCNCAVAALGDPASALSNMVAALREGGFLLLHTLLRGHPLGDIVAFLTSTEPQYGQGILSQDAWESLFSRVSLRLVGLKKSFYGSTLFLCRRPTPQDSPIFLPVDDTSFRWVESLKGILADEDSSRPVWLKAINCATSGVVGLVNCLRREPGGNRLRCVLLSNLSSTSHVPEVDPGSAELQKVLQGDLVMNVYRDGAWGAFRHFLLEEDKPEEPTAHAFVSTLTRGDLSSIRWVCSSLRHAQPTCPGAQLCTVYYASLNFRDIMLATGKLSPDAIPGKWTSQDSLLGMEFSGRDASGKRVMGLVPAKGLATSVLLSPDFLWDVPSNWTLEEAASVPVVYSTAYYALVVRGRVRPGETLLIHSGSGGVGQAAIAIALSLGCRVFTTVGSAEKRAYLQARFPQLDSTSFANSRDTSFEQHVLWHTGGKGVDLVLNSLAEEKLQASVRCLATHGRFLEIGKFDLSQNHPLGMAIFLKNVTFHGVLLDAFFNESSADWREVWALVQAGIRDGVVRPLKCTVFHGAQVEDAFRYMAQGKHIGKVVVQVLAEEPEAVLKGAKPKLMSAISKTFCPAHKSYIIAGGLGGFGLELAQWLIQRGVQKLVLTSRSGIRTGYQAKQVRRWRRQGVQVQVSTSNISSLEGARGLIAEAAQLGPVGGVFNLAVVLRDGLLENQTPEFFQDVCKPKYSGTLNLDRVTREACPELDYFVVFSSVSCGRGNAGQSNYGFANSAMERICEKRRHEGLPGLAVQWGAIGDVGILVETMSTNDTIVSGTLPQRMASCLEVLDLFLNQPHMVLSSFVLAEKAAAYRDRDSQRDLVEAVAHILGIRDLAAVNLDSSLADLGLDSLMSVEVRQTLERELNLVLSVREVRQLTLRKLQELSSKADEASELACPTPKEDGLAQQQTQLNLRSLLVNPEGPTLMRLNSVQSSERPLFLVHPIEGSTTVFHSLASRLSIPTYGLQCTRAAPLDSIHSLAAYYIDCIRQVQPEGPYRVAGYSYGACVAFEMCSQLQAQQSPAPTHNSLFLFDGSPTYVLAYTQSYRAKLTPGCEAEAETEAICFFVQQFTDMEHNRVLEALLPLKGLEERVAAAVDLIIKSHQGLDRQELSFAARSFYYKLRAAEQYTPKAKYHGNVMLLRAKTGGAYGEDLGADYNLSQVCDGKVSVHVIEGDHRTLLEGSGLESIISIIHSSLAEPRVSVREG
Chain of RNA-editing ligase 1, mitochondrial (P86926 whole entry): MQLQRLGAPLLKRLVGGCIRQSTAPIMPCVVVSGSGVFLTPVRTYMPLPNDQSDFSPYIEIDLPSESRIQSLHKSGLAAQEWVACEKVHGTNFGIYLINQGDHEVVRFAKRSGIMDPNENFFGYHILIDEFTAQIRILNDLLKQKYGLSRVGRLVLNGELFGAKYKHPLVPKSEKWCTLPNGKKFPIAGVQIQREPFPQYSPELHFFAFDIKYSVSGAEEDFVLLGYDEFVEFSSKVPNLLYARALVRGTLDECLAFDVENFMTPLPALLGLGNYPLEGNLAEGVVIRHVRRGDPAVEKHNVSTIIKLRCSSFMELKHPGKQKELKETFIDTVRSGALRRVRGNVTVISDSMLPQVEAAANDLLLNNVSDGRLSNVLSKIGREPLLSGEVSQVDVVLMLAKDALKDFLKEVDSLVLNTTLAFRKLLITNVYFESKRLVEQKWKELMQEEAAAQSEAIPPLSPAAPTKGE

Turning to `O=S(=O)(Nc1cc(Sc2nc[nH]n2)c(O)c2ccccc12)c1ccc(F)cc1`, the CC50 in experiment [1] was 14.3 µM (active).
Turning to `OC[C@@H]1[C@H](c2ccc(/C=C/c3ccccc3)cc2)[C@H]2CN(CCC(F)(F)F)CCCCN12`, the AC50 in experiment [2] was 17.4 µM (active).
Regarding `CCn1c(S)nnc1-c1cc(-c2ccc(OC(C)C)cc2)nc2ccccc12`, the AC50 in [3] and in [4] was > 52 µM (inactive) each time.
As to `O=C(Nc1ccc(Cl)cc1)c1csc(-c2ccccc2)n1`, the IC50 was > 83.3 µM (inactive) on Fibrinogen beta chain [5]; 6.94 µM (active) in experiment [6]; 13.5 µM (active) on Fatty acid synthase [7]; > 83.3 µM (inactive) on Fibrinogen beta chain [8]; 10.1 µM (not active) in experiment [9]; 12.3 µM (active) at Fatty acid synthase [10].
As for `COC(=O)C1=C(C)N(Cc2ccccc2C(F)(F)F)C(NCc2ccc(OC)cc2)=NC1c1cccc(F)c1` (stereo unspecified), in experiment [11], the IC50 was > 96.6 µM (inactive).
Regarding `Oc1ccc(C2CCN(c3ccnc4ccccc34)C2)cc1O` (stereo unspecified), the half-inhibitory concentration (IC50) in experiment [12] is 0.93 µM (active).
For `C[C@H](CO)N1C[C@H](C)[C@H](CN(C)S(=O)(=O)c2ccc(F)cc2)Oc2ccc(NS(=O)(=O)c3ccc(Cl)cc3)cc2C1=O`, the AC50 in [13] was 18.9 µM (active); in [14], > 39 µM (inactive); in the experiment with HEK293, 18.9 µM (active); in experiment [15] it was 10 µM (active).

Usually CC50 stands for the concentration at which the toxic effect on the cells reaches its halfway point. Broadly, the AC50 is the concentration giving half of the maximal activity seen. The IC50 is the concentration at which inhibition is half-maximal.
